Experimental data published in doi:10.1101/2024.12.20.629780v2 (bioRxiv, 2024).
Ends that are not written are not given here.

Tested on: PMA-differentiated human monocytes (THP-1)
Assay: MTT cytotoxicity assay
Type: cell-based
Conditions: Ala-scan

Row | Compound | Cytotoxicity in PMA-differentiated THP-1 cells relative to Turingcin-46
1 | FRWALYKRALAATTIKIKRRK [W4A-Turingcin-46] | reduced cytotoxicity
2 | FRWWAYKRALAATTIKIKRRK [L5A-Turingcin-46] | reduced cytotoxicity
3 | FRWWLYKRALAATTIKIKRAK [R20A-Turingcin-46] | reduced cytotoxicity
4 | FRWWLYKRALAATTIKIKRRA [K21A-Turingcin-46] | reduced cytotoxicity

Tested on: not listed separately
Assay: Solubility in autoclaved deionized water
Type: physicochemical
Conditions: not given

Row | Compound | Solubility in autoclaved deionized water
5 | FRWWLYKRALAATTIKIKRRK [Turingcin-46] | Soluble
6 | KILIRKILTIIERKLLRSNLKS [Turingcin-12] | Soluble
7 | KIWKIKILRINKKTSSIIA [Turingcin-14] | Soluble
8 | KKRVYRQKIRLIKKAIFFKKR [Turingcin-18] | Soluble
9 | KKVWYIKVKLALALIKNI [Turingcin-3] | Soluble
10 | KLRSSKKIFQIAAKFNKLFRRK [Turingcin-26] | Soluble
11 | KMWKLRIKLTI [Turingcin-13] | Soluble
12 | KQIKQRSIRIKIFKKIL [Turingcin-24] | Soluble
13 | KRIKILRKYKWNQQYKKKL [Turingcin-16] | Soluble
14 | KRRAARIKQLRFIQQSLREERIIQKLIK [Turingcin-6] | Soluble
15 | LIWRRKIFRIKLRI [Turingcin-17] | Soluble
16 | QRRVLRFKLNTKIARLINLNI [Turingcin-27] | Soluble
17 | RIINIILNRNLKKIILAAAIRNAIRW [Turingcin-22] | Soluble
18 | RILRKVWTAWLREAALTIKVKR [Turingcin-9] | Soluble
19 | RILRKWSNWWWNNWLIWK [Turingcin-28] | Soluble
20 | RLIKAILNRVWKAWAIQKK [Turingcin-2] | Soluble
21 | RRLNSKINLYLRIIIALINK [Turingcin-20] | Soluble
22 | RVWKTLRIKVYFARRKQR [Turingcin-25] | Soluble
23 | RWWYTSIIKKKLNKIIA [Turingcin-11] | Soluble
24 | SRKYRQLAKYIWRNLANKNRLIIKA [Turingcin-15] | Soluble
25 | VMRRFFRLLRKIKL [Turingcin-23] | Soluble
26 | WAVKSSRIIYTLLRKLKTWFNIKAK [Turingcin-8] | Soluble

Further lines, results first:

Row | Solubility in autoclaved deionized water | Compound
27 | Soluble | ARWWLYKRALAATTIKIKRRK [F1A-Turingcin-46]
28 | Soluble | FAWWLYKRALAATTIKIKRRK [R2A-Turingcin-46]
29 | Soluble | FRAWLYKRALAATTIKIKRRK [W3A-Turingcin-46]
30 | Soluble | FRWALYKRALAATTIKIKRRK [W4A-Turingcin-46]
31 | Soluble | FRWWAYKRALAATTIKIKRRK [L5A-Turingcin-46]
32 | Soluble | FRWWLAKRALAATTIKIKRRK [Y6A-Turingcin-46]
33 | Soluble | FRWWLYARALAATTIKIKRRK [K7A-Turingcin-46]
34 | Soluble | FRWWLYKAALAATTIKIKRRK [R8A-Turingcin-46]
35 | Soluble | FRWWLYKRAAAATTIKIKRRK [L10A-Turingcin-46]
36 | Soluble | FRWWLYKRALAAATIKIKRRK [T13A-Turingcin-46]
37 | Soluble | FRWWLYKRALAATAIKIKRRK [T14A-Turingcin-46]
38 | Soluble | FRWWLYKRALAATTAKIKRRK [I15A-Turingcin-46]
39 | Soluble | FRWWLYKRALAATTIAIKRRK [K16A-Turingcin-46]
40 | Soluble | FRWWLYKRALAATTIKAKRRK [I17A-Turingcin-46]
41 | Soluble | FRWWLYKRALAATTIKIARRK [K18A-Turingcin-46]
42 | Soluble | FRWWLYKRALAATTIKIKARK [R19A-Turingcin-46]
43 | Soluble | FRWWLYKRALAATTIKIKRAK [R20A-Turingcin-46]
44 | Soluble | FRWWLYKRALAATTIKIKRRA [K21A-Turingcin-46]
45 | Insoluble | ILARLSSILKLI [Turingcin-4]
46 | Insoluble | KILWYRIILIRFQKVW [Turingcin-5]
47 | Soluble | KKIIIKFLIFNTKL [Turingcin-19]
48 | Soluble | RLKSILLLIVTKINIRLKIA [Turingcin-7]
49 | Soluble | RRWVHKILLIIIKILA [Turingcin-1]
50 | Soluble | RYIRLLVILKLA [Turingcin-10]
51 | Insoluble | WYLIRVALIAFKKA [Turingcin-21]

Tested on: not listed separately
Assay: Resistance to proteolytic degradation in human serum
Type: in vitro ADME
Conditions: 25% human serum in water

Row | Compound | remaining at 1 h, 7 mg mL-1
52 | FRWWLYKRALAATTIKIKRRK [Turingcin-46] | ~50%

Tested on: S. aureus ATCC 12600
Assay: Skin abscess infection mouse model
Type: in vivo, CD-1 mice
Conditions: general indicator of potential toxicity

Row | Compound | Body weight change, skin abscess model
53 | FRWWLYKRALAATTIKIKRRK [Turingcin-46] | no significant changes in body weight

Tested on: S. aureus ATCC 12600
Assay: Peritonitis/sepsis mouse model
Type: in vivo, CD-1 mice
Conditions: at the tested dose

Row | Compound | Body weight change, peritonitis/sepsis model
54 | FRWWLYKRALAATTIKIKRRK [Turingcin-46] | no significant changes in body weight

Same assay, conditions: peritoneal lavage, log10 CFU, n = 9 per group

Row | Compound | Slope of intracellular versus extracellular bacterial loads (linear regression)
55 | CNC(C)C1CCC(N)C(OC2C(N)CC(N)C(OC3OCC(C)(O)C(NC)C3O)C2O)O1 (stereo not shown) [gentamicin, reference compound] | 1.37
